# Measurements: patent US20080221129A1, “New compounds” (priority 2006, published 2008)
# Molecular target: T1, stearoyl-CoA desaturase (SCD) (Rattus norvegicus, UniProt P07308)
# T1 construct: 0.032 mg/ml rat liver microsomes (total protein content); from tissue
# T1 sequence (P07308 1-358): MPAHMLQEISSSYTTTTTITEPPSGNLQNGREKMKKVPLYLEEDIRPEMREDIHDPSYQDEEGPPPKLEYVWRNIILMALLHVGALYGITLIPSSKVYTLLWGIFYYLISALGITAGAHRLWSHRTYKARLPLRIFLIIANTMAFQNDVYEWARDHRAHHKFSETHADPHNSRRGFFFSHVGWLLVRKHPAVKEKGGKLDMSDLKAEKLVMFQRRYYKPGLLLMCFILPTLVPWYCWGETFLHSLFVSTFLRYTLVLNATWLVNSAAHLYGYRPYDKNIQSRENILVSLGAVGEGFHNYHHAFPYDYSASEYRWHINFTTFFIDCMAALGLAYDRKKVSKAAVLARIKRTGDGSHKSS
# Experiment: Tritium release screening assay for inhibition of stearoyl-CoA desaturase activity in rat liver microsomes
# Format: biochemical, rat (Male Sprague-Dawley)
# Details: [3H]-stearoyl-CoA, 20 min pre-incubation, 20 min reaction, 384- or 96-well format
# Text: Another measure of SCD activity was introduced by Talamo and Bloch in 1969 [Talamo & Bloch (1969) Anal. Biochem. 29, 300-304]. This method is based on the quantification of a second product of the desaturase reaction, i.e. the water molecule that is released in the desaturase reaction. The quantification is based on the use of a long chain acyl-CoA substrate, e.g. stearoyl-CoA, that is specifically labeled with tritium in positions 9 and 10 of the carbon chain such that the released water is also tritiated ([^3H]-H2O). The remaining [^3H]-stearoyl-CoA as well as the product [^3H]-oleyl-CoA must then be separated from the solution before the tritiated water content can be measured by means of liquid scintillation. Talamo and Bloch acid precipitated the long chain acyl-CoAs followed by filtration to achieve this separation, but this separation can also be achieved by means of centrifugation instead of filtration [Johnson & Guhr (1971) Lipids 6, 78-84]. An alternative procedure that involves precipitation by ethanol and activated charcoal followed by centrifugation has also been described [Shanklin and Somerville (1991) Proc. Natl. Acad. Sci. USA 88, 2510-2514]. Based on these studies it is clear that near perfect separation is required for optimal assay performance. When applying this assay it is important to recognize that the apparent desaturation rate is impacted by isotope effects as described by Johnson and Gurr in 1971 [Johnson & Guhr (1971) Lipids 6, 78-84]. Thus whereas the assay serves as an excellent measure of relative SCD activity it must be calibrated using other methods when absolute measures of enzyme activity are needed. The pros and cons of this assay have also been summarized in the literature [Gurr & Robinson (1972) Anal. Biochem. 47, 146-156]. An abundant source of stearoyl-CoA desaturase activity can be found in microsomal preparations from the liver of rats that have been subjected to a fasting-refeeding procedure on a low fat/high carbohydrate diet [reviewed in Ntambi (1999) J. Lipid Res. 40, 1549-1558]. However, microsomal preparations are not a pure source of SCD activity and this means that the added stearoyl-CoA substrate is subject also to other enzymatic processes. It is therefore essential to include reagents that allow regeneration of the stearoyl-CoA substrate as described by Bertram and Erwin [Bertram & Erwin (1981) J. Protozool. 8, 127-131].
# The tritium release assay for the measurement of SCD activity is thus well documented in the literature. Descriptions on how these finding have been used to produce standard screening assays in 96-well plates are also available [Brownlie, Hayden, Attie, Ntambi, Gray-Keller, & Miyazaki (2001) WO 01/62954; Wu, Gallipoli, Gallagher, & Gardell (2004) WO 2004/04776]. […]
row,IC50 [nM],Compound
1,1000 ± 400,"COCCNC(=O)c1cnn2c(C)c(Cc3ccccc3)c(C)nc12 [Example 1, 6-benzyl-N-(2-methoxyethyl)-5,7-dimethylpyrazolo[1,5-a]pyrimidine-3-carboxamide]"
2,140 ± 67,"Cc1nc2c(C(=O)NCC3CCCO3)cnn2c(C)c1Cc1cccc(Br)c1 (stereo not shown) [6-(3-bromobenzyl)-5,7-dimethyl-N-(tetrahydrofuran-2-ylmethyl)pyrazolo[1,5-a]pyrimidine-3-carboxamide]"
3,700 ± 110,"CCOCCCNC(=O)c1cnn2c(C)c(Cc3cccc(F)c3)c(C)nc12 [Example 24, N-(3-ethoxypropyl)-6-(3-fluorobenzyl)-5,7-dimethylpyrazolo[1,5-a]-pyrimidine-3-carboxamide]"
4,830 ± 240,"COc1cccc(Cc2c(C)nc3c(C(=O)NCCNC(C)=O)cnn3c2C)c1 [Example 8, N-[2-(Acetylamino)ethyl]-6-(3-methoxybenzyl)-5,7-dimethylpyrazolo-[1,5-a]pyrimidine-3-carboxamide]"
